From PubChem BioAssay (NCI)
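These data come from cells grown in 96-well plates and exposed to compound for 48 hours at five concentrations. The concentration for 50% growth inhibition is given as GI50. At the TGI there is no net growth.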

Assays:
Test in all cases: NCI-60 cell line screen, 48 h
BT-549 breast = test system: BT-549 breast
COLO 205 colon = test system: COLO 205 colon
HCT-116 colon = test system: HCT-116 colon
LOX IMVI melanoma = test system: LOX IMVI melanoma
SF-268 CNS = test system: SF-268 CNS
SK-MEL-5 melanoma = test system: SK-MEL-5 melanoma
SN12C renal = test system: SN12C renal
UACC-257 melanoma = test system: UACC-257 melanoma

Row | Compound | TGI (BT-549 breast) [µM] | TGI (COLO 205 colon) [µM] | TGI (HCT-116 colon) [µM] | TGI (LOX IMVI melanoma) [µM] | TGI (SF-268 CNS) [µM] | TGI (SK-MEL-5 melanoma) [µM] | TGI (SN12C renal) [µM] | TGI (UACC-257 melanoma) [µM] | GI50 (BT-549 breast) [µM] | GI50 (COLO 205 colon) [µM] | GI50 (HCT-116 colon) [µM] | GI50 (LOX IMVI melanoma) [µM] | GI50 (SF-268 CNS) [µM] | GI50 (SK-MEL-5 melanoma) [µM] | GI50 (SN12C renal) [µM] | GI50 (UACC-257 melanoma) [µM]
1 | CSC(SC)(C(=O)O)c1cc(-c2c(Cl)cccc2Cl)no1 | > 100 | > 100 | > 100 | > 100 | > 100 | 85.8 | > 100 | > 100 | – | – | – | – | – | – | – | –
2 | COc1ccc2c(c1)OC1=C(C(=O)OC1)C2c1cc(OC)c2c(c1)OCCO2 (configuration not stated) | 28.8 | 0.13 | > 31.9 | > 100 | > 100 | 0.535 | > 100 | > 100 | 0.131 | 0.0362 | 0.0478 | 0.0802 | 0.156 | 0.0347 | 0.0972 | 0.0458
3 | O=C(/C=C/c1ccccc1)Nc1ncc(Cc2ccccc2Cl)s1 | > 100 | > 100 | > 100 | > 100 | > 100 | – | > 100 | > 100 | 0.945 | 0.366 | 0.375 | 0.426 | 1.8 | 0.341 | 0.623 | > 100
4 | CCCOC(=O)N[C@H]1CCc2c(Cl)c(OC)c(OC)c(OC)c2-c2ccc(SC)c(=O)cc21 | 6.01 | – | 12.7 | 13 | 17.4 | 0.0207 | 13.6 | 37.5 | < 0.01 | – | < 0.01 | < 0.01 | < 0.0117 | < 0.01 | < 0.0123 | 7.46
5 | O=C(O)CSCCc1ccccc1 | > 100 | > 100 | > 100 | > 100 | > 100 | > 100 | > 100 | > 100 | – | – | – | – | – | – | – | –
6 | CN(c1ccc(NC(=O)Nc2c(Cl)cccc2Cl)cc1)c1ccnc(Nc2cccc(CS(C)(=O)=O)c2)n1 | 8.15 | 11.9 | 7.45 | > 14.7 | 10.7 | 7.09 | 10.6 | 6.55 | 3.3 | 0.16 | 1.3 | 2.37 | 2.19 | 2.79 | 3.37 | 1.94
7 | COc1cc(C2c3cc4c(cc3OC(C)(N3CCCC3)C2C)OCO4)cc(OC)c1OC (configuration not stated) | 12.2 | 0.528 | 16.5 | > 31.4 | > 92.9 | 1.58 | 30.8 | > 100 | – | – | – | – | – | – | – | –
8 | CCCCCCCCn1ccc2cc(NC(=O)Cn3cc(CN4CCCCCC4)nn3)ccc21 | 3.32 | 3.25 | 3.1 | 3.17 | 3.37 | 3.13 | 3.26 | 3.58 | 1.72 | 1.68 | 1.66 | 1.7 | 1.8 | 1.74 | 1.67 | 1.91
9 | CCOc1cccc(/C=N/NC(=O)c2cccc(Nc3ccnc(C(F)(F)F)c3)c2)c1O | 36.5 | 18.4 | > 69.4 | > 26.6 | > 45.3 | 7.84 | > 70.7 | 24 | 1.44 | 0.532 | 0.477 | 0.473 | 0.873 | 0.676 | 1.66 | 3.09
10 | CNC(=O)OCc1c(COC(=O)NC)c(-c2ccc(-c3ccccc3)cc2)n(C)c1C | 7.11 | 16.5 | 14.1 | 11.7 | 5.32 | 14 | 3.8 | 37.3 | – | – | – | – | – | – | – | –
11 | CC(=O)c1ccc(NC(=O)/C(CC(=O)c2sc(-c3cccnc3)nc2C)=N/NC(N)=O)cc1 | – | 35.2 | 42.5 | > 100 | > 100 | > 100 | > 100 | – | – | – | – | – | – | – | – | –
12 | CC(C)(C)c1cc([N+](=O)[O-])cc([N+](=O)[O-])c1O | – | > 10 | > 10 | > 10 | > 10 | > 10 | > 10 | > 10 | – | – | – | – | – | – | – | –
13 | C=C(C)[C@@H]1CC[C@]2(COCCCN)CC[C@]3(C)[C@H](CC[C@@H]4[C@@](C)(CCCNCCCN)[C@H](C(=C)C)CC[C@]43C)[C@@H]12 | 29.6 | 3.48 | 2.84 | – | 3.72 | 3.27 | 2.96 | 3.67 | 10.6 | 1.78 | 1.45 | – | 1.84 | 1.81 | 1.58 | 1.88
14 | CN(C)Cc1cc(C(F)(F)F)ccc1C(O)(c1ccccc1)c1ccccc1 | – | 20.8 | 26.8 | 31.8 | 34.3 | 27.3 | 29.3 | 24 | – | – | – | – | – | – | – | –
15 | COc1cc(Nc2ncccc2C(=O)Nc2nc3ccc(F)cc3s2)cc(OC)c1OC | > 100 | > 100 | > 100 | > 100 | > 100 | 5.14 | > 100 | – | 2.63 | 3.04 | 3.49 | 3.87 | 6.56 | 1.63 | 4.73 | –
16 | COCCOC(=O)C1=C(O)c2ccccc2S(=O)(=O)N1C | – | > 100 | > 100 | > 100 | > 100 | > 100 | > 100 | > 100 | – | – | – | – | – | – | – | –
17 | COc1ccc2c(c1)C(=O)CCc1cc(OC)c(OC)c(OC)c1-2 | – | 16.9 | > 100 | > 100 | > 100 | – | > 100 | > 100 | – | < 0.01 | < 0.01 | < 0.01 | 0.0652 | – | < 0.01 | –
18 | O=C1C=CC(=O)C2C1C1(Cl)C(Cl)=C(Cl)C2(Cl)C1(Cl)Cl (configuration not stated) | – | 27.2 | 14.6 | 16.2 | 14.8 | 19.4 | 25.6 | 20 | – | 11.5 | 3.51 | 4.05 | 3.16 | 6.61 | 6 | 6.82
19 | CC(C)CNc1nc(-c2ccccc2Cl)nc2ccccc12 | – | 50 | 30.2 | 27.6 | 40.4 | 29.8 | 30.6 | – | – | 20.3 | 16.6 | 14.5 | 22.1 | 16.2 | 16.5 | –
